By NOAEL is commonly meant the highest dose or exposure tested at which no adverse effect was seen. The LOAEL is the lowest dose or exposure tested at which an adverse effect was seen.

Data set [1] concerns rat. As to conditions: Carcinogenicity; sprague dawley; Oral; Feed; dose end: 104 week; group: systemic; systemic / clinical chemistry / glucose / glucose + systemic / in life observation / body weight / body weight gain + systemic / in life ….
Another data set has as its system rabbit. As to conditions: Prenatal developmental toxicity study; new zealand white; Oral; Gavage/Intubation; dose end: 19 GD; group: maternal; systemic / in life observation / body weight / body weight + systemic / in life observation / clinical signs / [other] + systemic / in life ….
Data set [2] relates to rat. The note with it: Chronic toxicity; sprague dawley; Oral; Feed; dose end: 78 week; group: systemic; systemic / clinical chemistry / glucose / glucose + systemic / in life observation / body weight / body weight gain + systemic / in life ….
Data set [3] concerns mouse. As to conditions: Developmental neurotoxicity study; other; Oral; [Not Specified]; dose end: 90 PND; group: cannot be grouped; systemic / in life observation / body weight / offspring (pup) weight gain + systemic / in life observation / clinical signs / convulsions.
For data set [4], the system named is rat. As to conditions: Developmental neurotoxicity study; wistar; Injection; Subcutaneous; dose end: 42 PND; group: cannot be grouped; developmental / developmental malformation / general / crown-rump length + developmental / offspring survival late / [other] / [other] + ….
Data set [5] concerns rat. As to conditions: Developmental neurotoxicity study; wistar; Injection; Subcutaneous; dose end: 68 PND; group: cannot be grouped; developmental / offspring survival late / [other] / [other] + systemic / hematology / leukocyte (wbc) count differential / leukocyte (wbc….
In data set [6] the test system is rat. As to conditions: Developmental neurotoxicity study; wistar; Oral; Water; dose end: 60 PND; group: cannot be grouped; systemic / in life observation / body weight / offspring (pup) weight.
Data set [7] concerns mouse. As to conditions: Subchronic oral toxicity in rodents, b6c3f1, Feed, dose end: 90 day.
Data set [8] concerns mouse. The note with it: Multigenerational reproductive toxicity study; cd1; Oral; Feed; dose end: 2 generation; group: offspring; systemic / in life observation / body weight / offspring (pup) weight.
Data set [9] relates to rat. As to conditions: Subchronic oral toxicity in rodents, fischer, Feed, dose end: 90 day.
Where [10] appears, read: group: maternal, reproductive / reproductive performance / estrous cycle / length.
Where [11] appears, read: group: systemic, systemic / clinical chemistry / 5' nucleotidase / 5' nucleotidase + systemic / clinical chemistry / alanine aminotransferase (alt/sgpt) / ….
[12] abbreviates: group: systemic, systemic / in life observation / body weight / body weight gain + systemic / organ weight / liver / relative to body weight.
Setting [13] is: group: systemic, systemic / organ weight / liver / relative to body weight.
Setting [14] is: group: systemic, systemic / organ weight / liver / relative to body weight + systemic / clinical chemistry / bile acids / bile acids + systemic / in life ….

Each structure is given as a SMILES string.

As for `OC[C@H]1O[C@H](O[C@]2(CCl)O[C@H](CCl)[C@@H](O)[C@@H]2O)[C@H](O)[C@@H](O)[C@H]1Cl` [Sucralose], in the data set with rat [1], the LEL worked out at 150 mg/kg/day, the NEL is less than 150 mg/kg/day and the NOAEL is no less than 15000 mg/kg/day. Besides, in the data set on rabbit, the LEL came out at 700 mg/kg/day, the LOAEL is greater than 700 mg/kg/day, the NEL stood at 350 mg/kg/day and the NOAEL is no less than 700 mg/kg/day. In the data set on rat [2], the LEL was found to be 150 mg/kg/day, the LOAEL is greater than 15000 mg/kg/day, the NEL was less than 150 mg/kg/day and the NOAEL is no less than 15000 mg/kg/day.

Turning to `N[C@@H](CCC(=O)O)C(=O)[O-].[Na+]` [Sodium l-glutamate], in the data set on mouse [3], the LEL worked out at 2.5 mg/kg/day, the LOAEL was greater than 4 mg/kg/day, the NEL is less than 2.5 mg/kg/day and the NOAEL is no less than 4 mg/kg/day. Besides, in the data set on rat [4], the LEL came to 0.004 mg/kg/day, the LOAEL was greater than 0.004 mg/kg/day, the NEL is less than 0.004 mg/kg/day and the NOAEL was no less than 0.004 mg/kg/day. For the same compound, in the data set on rat [5], the LOAEL was greater than 4000 mg/kg/day, the NEL was less than 4000 mg/kg/day and the NOAEL is no less than 4000 mg/kg/day. In the data set on rat [6], this compound returned an LEL of 10000 mg/kg/day, an NEL of less than 10000 mg/kg/day and an NOAEL of no less than 10000 mg/kg/day.

For the compound `Cc1ccccc1O` [o-Cresol], the LEL was determined as 237 mg/kg/day with mouse [7] (setting [10]); 199 mg/kg/day with mouse [7] (setting [12]); 624 mg/kg/day with mouse [8]; 129 mg/kg/day in the data set on rat [9] (setting [10]); 510 mg/kg/day with rat [9] (setting [13]). For the same compound, the LOAEL in the data set on mouse [7] (setting [10]) was greater than 3200 mg/kg/day; in the data set on mouse [7] (setting [11]) it was greater than 3200 mg/kg/day; in the data set with mouse [8] it was greater than 624 mg/kg/day; in the data set with rat [9] (setting [10]), greater than 2020 mg/kg/day; in the data set on rat [9] (setting [13]), 1020 mg/kg/day. Moreover, the NOAEL in the data set with mouse [7] (setting [10]) was no less than 3200 mg/kg/day; in the data set on mouse [7] (setting [11]) it was no less than 3200 mg/kg/day; with mouse [8], no less than 624 mg/kg/day; in the data set with rat [9] (setting [10]), no less than 2020 mg/kg/day; with rat [9] (setting [14]), 510 mg/kg/day. The NEL in the data set on mouse [7] (setting [12]) is less than 199 mg/kg/day; in the data set with rat [9] (setting [10]), less than 129 mg/kg/day; in the data set on rat [9] (setting [14]), 247 mg/kg/day.

For the origin of these results see EPA's ToxRefDB 2.
